Values quoted from earlier work as cited in patent US20050245613A1, “Use of gaba-b receptor positive modulators in gastro-intestinal disorders” (priority 2002, published 2005).

Columns and labels:
[1] = system: vagal afferent and efferent fibers
GERD patients [2] = settings: long-term recording of esophageal pH
GERD patients [3] = system: GERD patients

NCC(CC(=O)O)c1ccc(Cl)cc1 (stereo not drawn) [Baclofen]
frequency of TLESR (ferrets): reduces the frequency of TLESR | frequency of TLESR (healthy subjects): reduces the frequency of TLESR | sensitivity of vagal afferent and efferent fibers [1]: reduce the sensitivity of vagal afferent and efferent fibers | frequency of TLESR (dogs): reduces the frequency of TLESR | esophageal acid exposure (GERD patients [2]): significant reduction in esophageal acid exposure | frequency of TLESR (GERD patients [3]): reduces the frequency of TLESR
